Results from the supplement of paper PMC10307832.

What was measured:
Experiment in all cases: relative viability (nuclei count vs DMSO), 5 days (fraction); higher = more cells survive
[1] = compound: C1/C(=C\C2=CC=CS2)/C(=O)/C(=C/C3=CC=CS3)/C1 + N=C(N)NC(=N)NCCc1ccccc1 [Phenformin] (partner 250 µM)
How it was run: (§1)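 After 5 days of treatment, lung cancer cells in 1536-well plates were fixed and stained in a single step (final 0.05% Triton X-100, 1% formaldehyde, 1 ug/ml Hoechst) and their nuclei counted on 4× images. Treatment had been applied by pin tool the day after seeding as one drug alone or as a fixed anchor-drug dose with five library-drug doses (not always all listed) in √10 steps. Relative viability is the nuclei count of treated wells divided by that of vehicle wells, and values are medians of duplicate plates.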

TPCA-1 + Phenformin = compound: C1=CC(=CC=C1C2=CC(=C(S2)NC(=O)N)C(=O)N)F [TPCA-1] + N=C(N)NC(=N)NCCc1ccccc1 [Phenformin] (partner 250 µM)
How it was run: as §1

[2] = compound: C[C@]12O[C@H](C[C@]1(O)CO)n1c3ccccc3c3c4c(c5c6ccccc6n2c5c31)CNC4=O [Lestaurtinib] + CS(=O)(=O)N1CCN(Cc2cc3nc(-c4cccc5[nH]ncc45)nc(N4CCOCC4)c3s2)CC1 [Pictilisib] (partner 1 µM)
How it was run: as §1

TPCA-1 + Bortezomib = compound: C1=CC(=CC=C1C2=CC(=C(S2)NC(=O)N)C(=O)N)F [TPCA-1] + CC(C)C[C@H](NC(=O)[C@H](Cc1ccccc1)NC(=O)c1cnccn1)B(O)O [Bortezomib] (partner 0.002 µM)
How it was run: as §1

Cell Line: UMC-11
- relative viability ([1]; first compound 0.2 µM): 0.32
- relative viability ([1]; first compound 0.6325 µM): 0.365
- relative viability ([1]; first compound 20 µM): 0.324
- relative viability (TPCA-1 + Phenformin; first compound 0.04 µM): 0.373
- relative viability (TPCA-1 + Phenformin; first compound 0.1265 µM): 0.299
- relative viability (TPCA-1 + Phenformin; first compound 0.4 µM): 0.36
- relative viability (TPCA-1 + Phenformin; first compound 1.265 µM): 0.307
- relative viability (TPCA-1 + Phenformin; first compound 4 µM): 0.171
- relative viability ([2]; first compound 0.005 µM): 0.83
- relative viability ([2]; first compound 0.01581 µM): 0.767
- relative viability ([2]; first compound 0.05 µM): 0.415
- relative viability ([2]; first compound 0.1581 µM): 0.366
- relative viability ([2]; first compound 0.5 µM): 0.145
- relative viability (TPCA-1 + Bortezomib; first compound 0.04 µM): 0.663
- relative viability (TPCA-1 + Bortezomib; first compound 0.1265 µM): 0.667
- relative viability (TPCA-1 + Bortezomib; first compound 0.4 µM): 0.798
- relative viability (TPCA-1 + Bortezomib; first compound 1.265 µM): 0.735
- relative viability (TPCA-1 + Bortezomib; first compound 4 µM): 0.134
